Read-outs that look alike come from different tables or passages of the source.
Target: T1, Bcl-3-p50 binding (Homo sapiens, UniProt P20749)
T1 construct: expressed in transfected cells; host or cells: HEK-293
T1 sequence (P20749 1-454): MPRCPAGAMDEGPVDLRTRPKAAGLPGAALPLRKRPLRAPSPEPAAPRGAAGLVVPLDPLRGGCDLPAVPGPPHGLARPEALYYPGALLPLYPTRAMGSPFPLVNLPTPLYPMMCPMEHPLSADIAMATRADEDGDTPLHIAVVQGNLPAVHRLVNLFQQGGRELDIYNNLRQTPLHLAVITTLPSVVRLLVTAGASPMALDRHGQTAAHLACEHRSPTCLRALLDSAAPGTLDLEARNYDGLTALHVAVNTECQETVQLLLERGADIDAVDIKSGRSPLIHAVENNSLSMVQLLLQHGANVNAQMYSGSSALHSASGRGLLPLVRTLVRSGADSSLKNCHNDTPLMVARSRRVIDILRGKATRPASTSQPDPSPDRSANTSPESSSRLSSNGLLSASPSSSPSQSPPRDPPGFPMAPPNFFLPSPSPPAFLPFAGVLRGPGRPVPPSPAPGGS
Experiment: Indirect sandwich ELISA of Bcl-3 binding to p50 in lysates of treated HEK-293 cells overexpressing FLAG-tagged Bcl-3
Assay type: cell-based
Method: Proteins were extracted from cells in order to be analyzed by ELISA assay. The media from tissue culture flask was removed and cells were rinsed with ice cold PBS (Sigma, Dorset, UK). Appropriate volume of PBS (5 ml for T25, 10 ml for T80) was added into the flask and cells were removed with a cell scraper (Nunc, Leics, UK). The cell suspension was then transferred to 15 ml tubes and centrifuged at 11000 rpm for 5 min at room temperature. Resulting pellet was used for protein extraction immediately or stored at −20° C. prior use.
Non-denatured protein extract was prepared using non-denaturing lysis buffer (Table 1) and used to analyze protein-protein interaction.
Complete mini protease inhibitor tablets (Roche, Welwyn Garden City, UK), 10 mM sodium fluoride (Fluka Biochemika), 1 mM sodium pyrophospate and 1 mM sodium orthovanadate (Sigma, Dorset, UK) were added to the buffer prior use. Cell pellets were resuspended in appropriate volume of non-denaturing buffer (50-200 μl) and cultivated on ice 5 min. Cell suspensions were transferred to microcentrifuge tubes and sonicated on ice (3 times 5 s) and centrifuged at 10000 rpm for 10 min at 4° C. The resultant supernatant was used immediately or stored at −20° C. until required.
In our case, ELISA assay was used to detect either the amount of Flag-Bcl-3 protein alone or Flag-Bcl-3 in complex with p50, using indirect or sandwich ELISA respectively.
For Indirect and sandwich ELISA assay, Non-denaturing cell lysate (above) was diluted with TBS/T [tris buffer saline (TBS, Calbiochem, Merck) supplemented with 0.5% v/v Tween (Sigma, Dorset, UK)] to a concentration of 0.5-1 μg/μl and 100 μl was added onto ANTI-Flag coated flat bottom ELISA plates (Sigma, Dorset, UK). Samples were added in triplicates, while TBS/T was used as a negative control. The plate was cultivated at 37° C. for an hour followed by 3×200 μl washes with TBS/T. Primary antibodies, either Bcl-3 (Santa Cruz Biotech) for indirect ELISA and p50 for sandwich ELISA (Abcam) were added in known volumes (125 μl) and concentrations to each well, cultivated covered from light for an hour at room temperature. Another three 200 μl washes with TBS/T were performed before cultivation with alkaline phospatase (AP) conjugated secondary antibody. Meanwhile, para-nitrophenylphosphate solution (pNPP, Santa Cruz Biotechnology, California, USA) was prepared according to manufacturer's instructions (5 mg of pNPP disodium salt in 5 ml of pNPP substrate buffer). The solution was mixed well and covered from light prior to use. pNPP is a substrate of choice for use with alkaline phosphatase and produces a soluble end product that is yellow in colour. Therefore colour changes can be measured and represent the amount of AP present. After cultivation with secondary antibody, the wells were washed 3×200 μl. TBS/T, pNPP solution was added (50 μl/well) and cultivated for an hour covered from light at room temperature. The reaction was stopped by addition of 3N NaOH (20 μl/well) and the colorimetric changes were measured at 405 nm using a plate reader.
HEK-293 cells overexpressing Bcl-3 were cultivated with Compound 1a over a range of molarities for 24 hrs before cell lysates were obtained under non-denaturing conditions. […] Indirect ELISA assay was performed using Bcl-3 antibody to show an equal loading across samples treated with compound 1a (FIG. 2B) and controls (FIG. 2C).
HEK-293 Bcl-3 WT cells were cultivated with selected compounds over a range of molarities for 24 hrs before cell lysates were obtained under non-denaturing conditions. The dose response curve for selected analogues was generated using GraphPad software (FIG. 8A-D).

[1] = HEK-293 overexpressing Bcl-3, 24 hrs, read-out: IC50 Indirect Sandwich ELISA (Bcl-3-p50 binding)
[2] = Table 3, read-out: ELISA assay (μM) IC50

Row | IC50 [1] | IC50 [2] | IC50 (HEK-293 Bcl-3 WT, 24 hrs, IC50 could not be established, calculated with GraphPad, read-out: IC50 Indirect Sandwich ELISA, calculated from the dose response curve) | Compound
1 | 0.386 µM | – | – | O=C(Nc1ccccc1C(=O)NCCN1CCOCC1)c1ccccc1F [Compound 1a, 2-[(2-fluorobenzoyl)amino]-N-(2-morpholin-4-ylethyl)benzamide]
2 | 0.0602 µM | 0.0617 µM | – | COc1ccc(C(=O)Nc2ccccc2C(=O)NCCN2CCOCC2)cc1 [Compound 1f, 2-[(4-methoxybenzoyl)amino]-N-(2-morpholin-4-ylethyl)benzamide]
3 | – | – | 15.2 µM | O=C(Nc1ccccc1C(=O)NCCCN1CCOCC1)c1ccccc1F [Compound 2a]
4 | 0.119 µM | 0.0119 µM | – | COc1cccc(C(=O)NCCN2CCOCC2)c1NC(=O)c1ccccc1F [Compound 3a, 2-[(2-fluorobenzoyl)amino]-3-methoxy-N-(2-morpholin-4-ylethyl) benzamide]

— US20220017478A1, “2-BENZOYLAMINOBENZAMIDE DERIVATIVES AS BCL-3 INHIBITORS” (University College Cardiff Consultants Limited, priority 2013, published 2022)
